Test results: patent US20020197219A1, “Composition containing a peptide and a pigment and the use thereof in darkening the skin” (priority 2001, published 2002)

Experiments:
[1] = tested on: Dark skinned Yucatan microswine; experiment: Induced pigmentation in vivo, F&M-stained skin sections of topically treated swine; parameters: key: −1: Slight lightening; 0: No change; 1: Minimal increase in pigment deposition; 2: Increased pigment deposition; 3: Strong increase in pigment deposition, some increase in caps; 4: Strong increase in pigment deposition, strong increase in caps; conditions: topical, twice a day, five days/week, eight or nine weeks; average of all sites of responsive swine; positive controls 1% (W/V), peptides 250 or 500 μM, pigments 1% or 5% (W/V)
Experimental: Compositions of the present invention were tested for their ability to induce in vivo pigmentation in skin cells in the following experiment. Dark skinned Yucatan microswine (Charles River, Portland, Me.) were housed in appropriately sized cages in an environmentally controlled room with a 12-hour light-12-hour dark photoperiod and supplied with food and water ad libitum. Animal care was based on the “Guide for the Care and Use of Laboratory Animals”, NIH Publication No. 85-23. Twenty μl of test peptides were applied topically, twice a day, five days/week, for eight or nine weeks, on the dorsum of the swine. Treatments of individual swine were always arranged in a head to tail order on one side, and in a tail to head order on the other side of the animal. Biopsies were taken using standard techniques.
Sections from the skin biopsies were stained with Hematoxylin and Eosin (H&E), or with Fontana-Mason (F&M), using standard procedures (Sheenan DC, Hrapckak BB, eds., Theory and Practice of Histo-technology. p. 223, 277, The C. V. Mosby Co., St. Louis (1980)). F&M staining identifies silver nitrate reducing molecules. In skin, this non-specific stain identifies primarily melanin. At least three sections per biopsy were processed. […]
F&M-stained histological skin sections were evaluated for the change in pigment deposition within the treated site. […]

[2] = tested on: keratinocyte-melanocyte co-cultures (Human HaCaT keratinocytes, human primary melanocytes); experiment: Induced pigmentation in keratinocyte-melanocyte co-cultures, DOPA staining and computerized image analysis; assay type: cell-based; conditions: three daily treatments; for Mean area: DOPA stain, relative pigmented area; for % increase: versus control
Experimental: The peptide Peptide 1 and various pigments were tested, alone or in combination, with keratinocyte-melanocyte cultures for their effect on cell pigmentation, using DOPA staining and computerized image analysis. The pigments that were tested were copper chloride from Sigma (St. Louis, Mo.) and the water-soluble melanin derivative Melasyn-100™ from San-mar laboratories, Inc. (Elmsford, N.Y.). The pigments were tested at concentrations ranging from 0.0001% (W/V) to 0.1% (W/V) and peptides were tested at 50 μM.
The assay was conducted in the following manner. Human HaCaT keratinocytes (Boukamp P., et al., J Cell Biol 106, 3, 761-771 (1988)) were maintained in Dulbecco's Modified Eagle's Medium (DMEM) containing 10% fetal bovine serum (FBS), 4.5 mg/ml glucose, 2 mM L-glutamine, 50 U/ml penicillin and 50 μg/ml streptomycin (Life Technologies, Gaithersburg, Md.). Cells were maintained at <80% confluency in 5% CO2 (v/v) and were used in experimental procedures up to culture passage 15. Human primary melanocytes (Clonetics, San Diego, Calif. or Cascade Biologics, Portland, Oreg.) were maintained according to manufacturer's instructions. To establish keratinocyte-melanocyte co-cultures, 6×10^4 melanocytes were plated in each well of a 24 well plate and maintained according to manufacturer's instructions.
Melanocytes were rinsed three times with melanocyte growth media without PMA and keratinocytes (6×10^4) were plated to establish the co-cultures in this media. Co-cultures were treated for three days with test peptides and pigments, and assayed for cell viability and pigment level on the forth day. Cell viability was assayed using alamarBlue™ (Acumed International, West Lake, Ohio) following manufacturer's instructions. No change in viability was observed following three daily treatments with all tested material. All in vitro experiments were performed in triplicates, and were repeated at least three times.
Following three daily treatments, the co-cultures were briefly fixed (10% buffered formalin from Fisher Scientific, 15 minutes), washed three times with Phosphate-buffered saline (PBS, from Life Technologies) and stained with L-3,4-Dihydroxyphenylalanine (DOPA, from Sigma, St. Louis, Mo.) 0.1% in PBS, for 5 hours at 37° C., followed by two PBS washes and formalin (10%, overnight) fixation. DOPA is a substrate for tyrosinase, therefore an increase in staining represents increased tyrosinase activity and pigment production. DOPA-stained monolayers were used for image analysis. All images were obtained and analyzed with Image Pro Plus 3.0 software (Media Cybernetics, Silver Spring, Md.). Parameters measured were surface area of stained material within melanocyte and keratinocytes and the total surface area of the cells in the culture, and the relative pigmented area was calculated. A value of 100% was assigned to untreated controls, and values of treatment groups were normalized to their relevant controls. In all experiments there was no difference between PBS-treated cells and untreated controls. Data are presented with standard deviation (SigmaPlot® 5.0, SPSS Science, Chicago, Ill.).
Forskolin (Sigma, St. Louis, Mo.), a known inducer of pigmentation, served as a positive control and a reference point. Forskolin was administered at 1% (W/V).

Compound	Score (change in pigment deposition) [1]	Mean area ([2]; 50 μM)	% increase ([2]; 50 μM) [%]	Mean area ([2]; 0.001% (W/V))	% increase ([2]; 0.001% (W/V)) [%]	Mean area ([2]; 0.1% (W/V))	% increase ([2]; 0.1% (W/V)) [%]
C=C[C@@]1(C)CC(=O)[C@]2(O)[C@@]3(C)[C@@H](O)CCC(C)(C)[C@@H]3[C@H](O)[C@H](OC(C)=O)[C@@]2(C)O1 [Forskolin]	1						
H2-Val-Gly-Val-Ala-Pro-Gly-NH2 (H-VGVAPG-NH2) [Peptide 1]	1	0.131	66.6				
[Cl][Cu][Cl] [CuCl2, copper chloride]				0.173	120	0.246	212
